Assay results taken from ChEMBL document CHEMBL5614413, “Design, synthesis and biological evaluation of amphiphilic benzopyran derivatives as potent antibacterial agents against multidrug-resistant bacteria” (Eur J Med Chem, 2024).
≈ marks a conversion by molar mass, not a printed value. Calls of active or inactive are those of the source. The calls are words filed in the database; no cut-off is given here.

What was measured:
Staphylococcus aureus [1] = experiment: Disruption of preformed biofilm in methicillin-resistant Staphylococcus aureus ATCC 43300 assessed as eradication of biofilm at 8 microg/ml by crystal violet staining based analysis relative to control; assay type: functional; conditions: dose 8 µg/ml
Staphylococcus aureus [2] = experiment: Antibacterial activity against erythromycin-susceptible Staphylococcus aureus ATCC 25923; assay type: functional
[3] = Hemolytic activity in sheep RBC; assay type: toxicity, cell-based, Ovis aries, Erythrocyte; conditions: sheep red blood cells (erythrocytes)
Staphylococcus aureus [4] = experiment: Antibacterial activity against methicillin-resistant Staphylococcus aureus ATCC 43300 infected in sepsis mouse model assessed as reduction in bacterial load in liver at 5 mg/kg pre-infected with bacteria for 1 hrs followed by continuous compound administration at 12 hrs intervals for 2 days (reference value: 7.16 log10CFU/g); assay type: functional; conditions: time 2 day
Staphylococcus aureus [5] = experiment: Bacteriostatic activity against methicillin-resistant Staphylococcus aureus ATCC 43300 assessed as inhibition of bacterial growth at 1 times of MIC measured after 24 hrs by time-kill kinetic analysis; assay type: functional, organism-based
Staphylococcus aureus [6] = experiment: Inhibition of biofilm formation in methicillin-resistant Staphylococcus aureus ATCC 43300 at 2 microg/ml relative to control; assay type: functional
Staphylococcus aureus [7] = experiment: Antibacterial activity against methicillin-resistant Staphylococcus aureus ATCC 43300 at 1/2 times of MIC measured after 20 passage; assay type: functional, organism-based
Staphylococcus aureus [8] = experiment: Antibacterial activity against methicillin-resistant Staphylococcus aureus ATCC 43300 infected in sepsis mouse model assessed as reduction in number of surviving bacterial colonies in blood at 10 mg/kg pre-infected with bacteria for 1 hrs followed by continuous compound administration at 12 hrs intervals for 2 days relative to control; assay type: functional; conditions: time 2 day
Staphylococcus aureus [9] = experiment: Antibacterial activity against methicillin-resistant Staphylococcus aureus ATCC 43300 infected in sepsis mouse model assessed as reduction in number of surviving bacterial colonies in blood at 5 mg/kg pre-infected with bacteria for 1 hrs followed by continuous compound administration at 12 hrs intervals for 2 days relative to control; assay type: functional; conditions: time 2 day
Staphylococcus aureus [10] = experiment: Selectivity ratio of MBC for bactericidal activity against methicillin-resistant Staphylococcus aureus ATCC 43300 in presence of 50% human blood to MBC for bactericidal activity against methicillin-resistant Staphylococcus aureus ATCC 43300; assay type: functional
Staphylococcus aureus [11] = experiment: Inhibition of biofilm formation in methicillin-resistant Staphylococcus aureus ATCC 43300 at 8 microg/ml relative to control; assay type: functional
Enterococcus faecalis = experiment: Antibacterial activity against vancomycin-susceptible Enterococcus faecalis ATCC 29212; assay type: functional
Staphylococcus aureus [12] = experiment: Antibacterial activity against methicillin-resistant Staphylococcus aureus ATCC 43300; assay type: functional
Staphylococcus aureus [13] = experiment: Antibacterial activity against methicillin-resistant Staphylococcus aureus ATCC 43300 infected in sepsis mouse model assessed as decrease in IL-6 level in blood at 5 to 10 mg/kg pre-infected with bacteria for 1 hrs followed by continuous compound administration at 12 hrs intervals for 2 days; assay type: functional, organism-based; conditions: dose 5-10 mg/kg, time 2.0 day
Staphylococcus aureus [14] = experiment: Inhibition of biofilm formation in methicillin-resistant Staphylococcus aureus ATCC 43300 at 16 microg/ml relative to control; assay type: functional
Staphylococcus aureus [15] = experiment: Antibacterial activity against methicillin-resistant Staphylococcus aureus ATCC 43300 infected in sepsis mouse model assessed as reduction in number of surviving bacterial colonies in liver at 10 mg/kg pre-infected with bacteria for 1 hrs followed by continuous compound administration at 12 hrs intervals for 2 days relative to control; assay type: functional; conditions: time 2 day
Staphylococcus aureus [16] = experiment: Bacteriostatic activity against methicillin-resistant Staphylococcus aureus ATCC 43300 assessed as inhibition of bacterial growth at 2 times of MIC measured after 24 hrs by time-kill kinetic analysis; assay type: functional, organism-based
Staphylococcus aureus [17] = experiment: Disruption of preformed biofilm in methicillin-resistant Staphylococcus aureus ATCC 43300 assessed as eradication of biofilm by crystal violet staining method; assay type: functional, organism-based; conditions: dose 2-64 µg/ml
Staphylococcus aureus [18] = experiment: Antibacterial activity against methicillin-resistant Staphylococcus aureus ATCC 43300 infected in sepsis mouse model assessed as reduction in number of surviving bacterial colonies in liver at 5 mg/kg pre-infected with bacteria for 1 hrs followed by continuous compound administration at 12 hrs intervals for 2 days relative to control; assay type: functional; conditions: time 2 day
Cell membrane [19] = experiment: Induction of cytoplasmic membrane permeabilization in methicillin-resistant Staphylococcus aureus ATCC 43300 assessed as increase fluorescence intensity at 16 microg/ml by PI staining based fluorescence analysis; assay type: cell membranes; conditions: dose 16.0 µg/ml
Staphylococcus aureus [20] = experiment: Antibacterial activity against methicillin-resistant Staphylococcus aureus ATCC 43300 infected in sepsis mouse model assessed as reduction in number of surviving bacterial colonies in kidney at 10 mg/kg pre-infected with bacteria for 1 hrs followed by continuous compound administration at 12 hrs intervals for 2 days relative to control; assay type: functional; conditions: time 2 day
Staphylococcus aureus [21] = experiment: Bactericidal activity against methicillin-resistant Staphylococcus aureus ATCC 43300 assessed as bacterial killing at 16 microg/ml measured after 4 hrs by time-kill kinetics analysis relative to control; assay type: functional; conditions: dose 16 µg/ml
Klebsiella pneumoniae = experiment: Antibacterial activity against Klebsiella pneumoniae ATCC 10031; assay type: functional
Staphylococcus aureus [22] = experiment: Selectivity ratio of MBC for bactericidal activity against methicillin-resistant Staphylococcus aureus ATCC 43300 in presence of 50% human serum to MBC for bactericidal activity against methicillin-resistant Staphylococcus aureus ATCC 43300; assay type: functional
Staphylococcus aureus [23] = experiment: Bactericidal activity against methicillin-resistant Staphylococcus aureus ATCC 43300 assessed as log reduction in bacterial growth at 16 microg/ml measured after 4 hrs by time-kill kinetics analysis; assay type: functional; conditions: dose 16 µg/ml
Bacillus subtilis = experiment: Antibacterial activity against penicillin-susceptible Bacillus subtilis ATCC 9372; assay type: functional
Staphylococcus aureus [24] = experiment: Bactericidal activity against methicillin-resistant Staphylococcus aureus ATCC 43300 in presence of 50% human blood by Mueller Hinton broth based assay; assay type: functional; conditions: ATCC 43300, Blood, time <= 6 hrs
Cell membrane [25] = experiment: Induction of cytoplasmic membrane depolarization in methicillin-resistant Staphylococcus aureus ATCC 43300 assessed as increase in fluorescence intensity at 2 microg/ml by DiSC3(5) dye-based fluorescence assay; assay type: cell membranes; conditions: dose 2.0 µg/ml
Staphylococcus aureus [26] = experiment: Antibacterial activity against methicillin-resistant Staphylococcus aureus ATCC 43300 infected in sepsis mouse model assessed as reduction in bacterial load in spleen at 5 mg/kg pre-infected with bacteria for 1 hrs followed by continuous compound administration at 12 hrs intervals for 2 days (reference value: 7.45 log10CFU/g); assay type: functional; conditions: time 2 day
Staphylococcus aureus [27] = experiment: Disruption of preformed biofilm in methicillin-resistant Staphylococcus aureus ATCC 43300 assessed as eradication of biofilm at 64 microg/ml by crystal violet staining based analysis relative to control; assay type: functional; conditions: dose 64 µg/ml
Staphylococcus aureus [28] = experiment: Antibacterial activity against methicillin-resistant Staphylococcus aureus ATCC 43300 infected in sepsis mouse model assessed as reduction in number of surviving bacterial colonies in spleen at 10 mg/kg pre-infected with bacteria for 1 hrs followed by continuous compound administration at 12 hrs intervals for 2 days relative to control; assay type: functional; conditions: time 2 day
Cell membrane [29] = experiment: Induction of cytoplasmic membrane depolarization in methicillin-resistant Staphylococcus aureus ATCC 43300 assessed as fold increase in fluorescence intensity at 16 microg/ml measured within 20 min by DiSC3(5) dye-based fluorescence assay; assay type: cell membranes; conditions: dose 16.0 µg/ml
Cell membrane [30] = experiment: Disruption of cell membrane in methicillin-resistant Staphylococcus aureus ATCC 43300 assessed as appearance of broken surface by scanning electron microscopic analysis; assay type: cell membranes
Staphylococcus aureus [31] = experiment: Antibacterial activity against penicillin-resistant Staphylococcus aureus ATCC 31007; assay type: functional

## CCCCN(CCCC)CCCNCCCOc1c(C(C)=O)ccc2c1C=CC(C)(CCC=C(C)C)O2 (centres undefined)
Staphylococcus aureus [1]
  Activity: 26.69%
Staphylococcus aureus [2]
  MIC: 2 µg/mL (≈ 3.9 µM)
[3]
  HC50: 131 µg/mL
Staphylococcus aureus [4]
  Activity: 1.98 log10CFU/g
Staphylococcus aureus [5]
  Activity: Active
Staphylococcus aureus [6]
  inhibition at 2 µg/mL: 8.46%
Staphylococcus aureus [7]
  Activity: Active
Staphylococcus aureus [8]
  Activity: 95.9%
Staphylococcus aureus [9]
  Activity: 91.8%
Staphylococcus aureus [10]
  selectivity ratio: 2
Staphylococcus aureus [11]
  inhibition at 8 µg/mL: 37.2%
Enterococcus faecalis
  MIC: 4 µg/mL (≈ 7.8 µM)
Staphylococcus aureus [12]
  MIC: 2 µg/mL (≈ 3.9 µM)
Staphylococcus aureus [13]
  Activity: Active
Staphylococcus aureus [14]
  inhibition at 16 µg/mL: > 92%
Staphylococcus aureus [15]
  Activity: 99.8%
Staphylococcus aureus [16]
  Activity: Active
Staphylococcus aureus [17]
  Activity: Dose-Dependent Effect
Staphylococcus aureus [18]
  Activity: 98.9%
Cell membrane [19]
  Activity: Active
Staphylococcus aureus [20]
  Activity: 99.9%
Staphylococcus aureus [21]
  Activity: >=99.9%
Klebsiella pneumoniae
  MIC: 4 µg/mL (≈ 7.8 µM)
Staphylococcus aureus [22]
  selectivity ratio: 2
Staphylococcus aureus [23]
  log(activity): 8.35
Bacillus subtilis
  MIC: 2 µg/mL (≈ 3.9 µM)
Staphylococcus aureus [24]
  MBC: 32 µg/mL
Cell membrane [25]
  Activity: inactive
Staphylococcus aureus [26]
  Activity: 2 log10CFU/g
Staphylococcus aureus [27]
  Activity: >40%
Staphylococcus aureus [28]
  Activity: 99.4%
Cell membrane [29]
  fold change (FC): 15
Cell membrane [30]
  Activity: Active
Staphylococcus aureus [31]
  MIC: 4 µg/mL (≈ 7.8 µM)
